Source: the supplement of paper PMC10307832

Legend:
Experiment in all cases: relative viability (nuclei count vs DMSO), 5 days (fraction); higher = more cells survive
A-427 = tested on: A-427
How it was run: (§1)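 Relative viability was taken as the ratio of nuclei in treated wells to nuclei in vehicle wells. Lung cancer cell lines in 1536-well plates received compounds by pin tool one day after seeding, either one drug alone or a fixed anchor-drug dose plus five library-drug doses (not always all listed) in √10 steps. Nuclei were counted on 4× images after 5 days of treatment, and values are medians of duplicate plates.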

CAL-12T = tested on: CAL-12T
How it was run: as §1

COR-L 105 = tested on: COR-L 105
How it was run: as §1

EMC-BAC-2 = tested on: EMC-BAC-2
How it was run: as §1

HARA = tested on: HARA
How it was run: as §1

HCC-366 = tested on: HCC-366
How it was run: as §1

HCC-827 = tested on: HCC-827
How it was run: as §1

HOP-62 = tested on: HOP-62
How it was run: as §1

LCLC-103H = tested on: LCLC-103H
How it was run: as §1

NCI-H1395 = tested on: NCI-H1395
How it was run: as §1

NCI-H1437 = tested on: NCI-H1437
How it was run: as §1

NCI-H1755 = tested on: NCI-H1755
How it was run: as §1

NCI-H1792 = tested on: NCI-H1792
How it was run: as §1

NCI-H1915 = tested on: NCI-H1915
How it was run: as §1

NCI-H2009 = tested on: NCI-H2009
How it was run: as §1

NCI-H2228 = tested on: NCI-H2228
How it was run: as §1

NCI-H23 = tested on: NCI-H23
How it was run: as §1

NCI-H460 = tested on: NCI-H460
How it was run: as §1

NCI-H522 = tested on: NCI-H522
How it was run: as §1

NCI-H727 = tested on: NCI-H727
How it was run: as §1

SK-LU-1 = tested on: SK-LU-1
How it was run: as §1

SW 1573 = tested on: SW 1573
How it was run: as §1

Work on CC(=O)O[C@@]12CO[C@@H]1C[C@H](O)[C@@]1(C)C(=O)[C@H](O)C3=C(C)[C@@H](OC(=O)[C@H](O)[C@@H](NC(=O)OC(C)(C)C)c4ccccc4)C[C@@](O)([C@@H](OC(=O)c4ccccc4)[C@H]21)C3(C)C [Docetaxel] + CC(=O)Nc1cccc(-n2c(=O)n(C3CC3)c(=O)c3c(Nc4ccc(I)cc4F)n(C)c(=O)c(C)c32)c1 [Trametinib] (partner 0.02 µM) yielded a relative viability (A-427; first compound 0.0002 µM) of 0.765, a relative viability (A-427; first compound 0.000632 µM) of 0.775 and a relative viability (A-427; first compound 0.002 µM) of 0.552. It also gave a relative viability (A-427; first compound 0.006325 µM) of 0.388, a relative viability (A-427; first compound 0.02 µM) of 0.216 and a relative viability (CAL-12T; first compound 0.0002 µM) of 0.294. The relative viability (CAL-12T; first compound 0.000632 µM) was 0.267, the relative viability (CAL-12T; first compound 0.002 µM) was 0.229 and the relative viability (CAL-12T; first compound 0.006325 µM) was 0.15. The relative viability (CAL-12T; first compound 0.02 µM) was 0.119, the relative viability (COR-L 105; first compound 0.0002 µM) was 0.399 and the relative viability (COR-L 105; first compound 0.000632 µM) was 0.445. For the same molecule, the relative viability (COR-L 105; first compound 0.002 µM) was 0.428, the relative viability (COR-L 105; first compound 0.006325 µM) was 0.339 and the relative viability (COR-L 105; first compound 0.02 µM) was 0.392. It also gave a relative viability (EMC-BAC-2; first compound 0.0002 µM) of 0.874, a relative viability (EMC-BAC-2; first compound 0.000632 µM) of 0.76 and a relative viability (EMC-BAC-2; first compound 0.002 µM) of 0.554. It also gave a relative viability (EMC-BAC-2; first compound 0.006325 µM) of 0.476, a relative viability (EMC-BAC-2; first compound 0.02 µM) of 0.385 and a relative viability (HARA; first compound 0.0002 µM) of 0.456. It also gave a relative viability (HARA; first compound 0.000632 µM) of 0.155, a relative viability (HARA; first compound 0.002 µM) of 0.235 and a relative viability (HARA; first compound 0.006325 µM) of 0.16. For the same molecule, the relative viability (HARA; first compound 0.02 µM) was 0.104, the relative viability (HCC-366; first compound 0.0002 µM) was 0.303 and the relative viability (HCC-366; first compound 0.000632 µM) was 0.102. The relative viability (HCC-366; first compound 0.002 µM) was 0.0555, the relative viability (HCC-366; first compound 0.006325 µM) was 0.0799 and the relative viability (HCC-366; first compound 0.02 µM) was 0.0179. For the same molecule, the relative viability (HCC-827; first compound 0.0002 µM) was 0.545, the relative viability (HCC-827; first compound 0.000632 µM) was 0.524 and the relative viability (HCC-827; first compound 0.002 µM) was 0.376. The relative viability (HCC-827; first compound 0.006325 µM) was 0.272, the relative viability (HCC-827; first compound 0.02 µM) was 0.189 and the relative viability (HOP-62; first compound 0.0002 µM) was 0.328. The relative viability (HOP-62; first compound 0.000632 µM) was 0.446, the relative viability (HOP-62; first compound 0.002 µM) was 0.355 and the relative viability (HOP-62; first compound 0.006325 µM) was 0.32. For the same molecule, the relative viability (LCLC-103H; first compound 0.0002 µM) was 0.675, the relative viability (LCLC-103H; first compound 0.000632 µM) was 0.697 and the relative viability (LCLC-103H; first compound 0.002 µM) was 0.727. It also gave a relative viability (LCLC-103H; first compound 0.006325 µM) of 0.782, a relative viability (LCLC-103H; first compound 0.02 µM) of 0.592 and a relative viability (NCI-H1395; first compound 0.0002 µM) of 1.04. It also gave a relative viability (NCI-H1395; first compound 0.000632 µM) of 1.06, a relative viability (NCI-H1395; first compound 0.002 µM) of 0.907 and a relative viability (NCI-H1395; first compound 0.006325 µM) of 0.467. The relative viability (NCI-H1395; first compound 0.02 µM) was 0.297, the relative viability (NCI-H1437; first compound 0.0002 µM) was 0.528 and the relative viability (NCI-H1437; first compound 0.000632 µM) was 0.501. It also gave a relative viability (NCI-H1437; first compound 0.002 µM) of 0.264, a relative viability (NCI-H1437; first compound 0.006325 µM) of 0.216 and a relative viability (NCI-H1755; first compound 0.0002 µM) of 0.766. The relative viability (NCI-H1755; first compound 0.000632 µM) was 0.743, the relative viability (NCI-H1755; first compound 0.002 µM) was 0.555 and the relative viability (NCI-H1755; first compound 0.006325 µM) was 0.415. The relative viability (NCI-H1755; first compound 0.02 µM) was 0.381, the relative viability (NCI-H1792; first compound 0.0002 µM) was 0.377 and the relative viability (NCI-H1792; first compound 0.000632 µM) was 0.338. It also gave a relative viability (NCI-H1792; first compound 0.002 µM) of 0.31, a relative viability (NCI-H1792; first compound 0.006325 µM) of 0.142 and a relative viability (NCI-H1792; first compound 0.02 µM) of 0.0842. For the same molecule, the relative viability (NCI-H1915; first compound 0.0002 µM) was 0.3, the relative viability (NCI-H1915; first compound 0.000632 µM) was 0.288 and the relative viability (NCI-H1915; first compound 0.002 µM) was 0.228. It also gave a relative viability (NCI-H1915; first compound 0.006325 µM) of 0.151, a relative viability (NCI-H1915; first compound 0.02 µM) of 0.0803 and a relative viability (NCI-H2009; first compound 0.0002 µM) of 0.273. The relative viability (NCI-H2009; first compound 0.000632 µM) was 0.312, the relative viability (NCI-H2009; first compound 0.002 µM) was 0.295 and the relative viability (NCI-H2009; first compound 0.006325 µM) was 0.233. The relative viability (NCI-H2009; first compound 0.02 µM) was 0.175, the relative viability (NCI-H2228; first compound 0.0002 µM) was 0.529 and the relative viability (NCI-H2228; first compound 0.000632 µM) was 0.233. The relative viability (NCI-H2228; first compound 0.002 µM) was 0.202, the relative viability (NCI-H2228; first compound 0.006325 µM) was 0.188 and the relative viability (NCI-H2228; first compound 0.02 µM) was 0.121. It also gave a relative viability (NCI-H23; first compound 0.0002 µM) of 0.377, a relative viability (NCI-H23; first compound 0.000632 µM) of 0.294 and a relative viability (NCI-H23; first compound 0.002 µM) of 0.278. It also gave a relative viability (NCI-H23; first compound 0.006325 µM) of 0.195, a relative viability (NCI-H23; first compound 0.02 µM) of 0.132 and a relative viability (NCI-H460; first compound 0.0002 µM) of 0.103. It also gave a relative viability (NCI-H460; first compound 0.000632 µM) of 0.0804, a relative viability (NCI-H460; first compound 0.002 µM) of 0.0715 and a relative viability (NCI-H460; first compound 0.006325 µM) of 0.0192. It also gave a relative viability (NCI-H460; first compound 0.02 µM) of 0.0118, a relative viability (NCI-H522; first compound 0.0002 µM) of 0.79 and a relative viability (NCI-H522; first compound 0.000632 µM) of 0.723. The relative viability (NCI-H522; first compound 0.002 µM) was 0.676, the relative viability (NCI-H522; first compound 0.006325 µM) was 0.42 and the relative viability (NCI-H522; first compound 0.02 µM) was 0.389. It also gave a relative viability (NCI-H727; first compound 0.0002 µM) of 0.398, a relative viability (NCI-H727; first compound 0.000632 µM) of 0.379 and a relative viability (NCI-H727; first compound 0.002 µM) of 0.402. The relative viability (NCI-H727; first compound 0.006325 µM) was 0.386, the relative viability (NCI-H727; first compound 0.02 µM) was 0.339 and the relative viability (SK-LU-1; first compound 0.0002 µM) was 0.518. The relative viability (SK-LU-1; first compound 0.000632 µM) was 0.468, the relative viability (SK-LU-1; first compound 0.002 µM) was 0.411 and the relative viability (SK-LU-1; first compound 0.006325 µM) was 0.281. For the same molecule, the relative viability (SK-LU-1; first compound 0.02 µM) was 0.223, the relative viability (SW 1573; first compound 0.0002 µM) was 0.467 and the relative viability (SW 1573; first compound 0.000632 µM) was 0.307. It also gave a relative viability (SW 1573; first compound 0.002 µM) of 0.165, a relative viability (SW 1573; first compound 0.006325 µM) of 0.192 and a relative viability (SW 1573; first compound 0.02 µM) of 0.108.
